Data: PMC12177125, “Anticancer, antimicrobial and molecular docking analysis of newly synthesized iodoquinazoline derivatives” (AMB Express, 2025)
Converted amounts (≈) assume the structure as drawn. “And” between values parts separate entries of the source, which are not always exact repeats. Equal entries are not always repeated. “Also recorded” adds a separate entry of the source. Where two headings read alike, the source gives them in different places.

Key:
[1] = tested on: C. albicans (CA) ATCC 14053; experiment: Broth microdilution MIC, C. albicans; type: cell-based; conditions: Candida albicans, ATCC14053, CLSI
Method: (§1) The five newly synthesized compounds were first qualitatively evaluated for antibacterial and antifungal activities using Muller-Hinton agar medium (MHA) through the agar well diffusion technique as previously described (Balouiri et al. [2016]). The bacterial test was performed against the following standard strains: S. aureus (SA) ATCC 25913, E. coli (EC) ATCC 25922, P. aeruginosa (PA) ATCC 27853, K. pneumoniae (KP) ATCC 49619. The antifungal activity was evaluated against C. albicans (CA) ATCC 14053 (CLSI [2021]). A bacterial culture and preparation of wells on a seeded MHA plate was performed as previously described (Isleem et al. [2025]). The experiment was done in triplicate according to CLSI guidelines (CLSI [2021]). Secondly, the compounds that gave positive inhibition zones were selected for MIC determination using broth microdilution assay according to CLSI guidelines (CLSI [2021]). […]

[2] = tested on: P. aeruginosa (PA) ATCC 27853; experiment: Broth microdilution MIC, P. aeruginosa; type: cell-based; conditions: Pseudomonas aeruginosa, ATCC27853, CLSI
[3] = tested on: HeLa (human cervical cancer); experiment: MTT cytotoxicity assay, HeLa; type: cell-based; conditions: 96 h continuous exposure, read-out: In vitro antitumor activities (IC50) HeLa (Cervical)
Text: (§2) Four immortalized human cancer cell lines served as a panel for testing the compounds' cytotoxicity. The STAT3-null A4 cell line (with homozygously deleted STAT3) is a sub-line of the DLD1 colorectal carcinoma cell line and was a gift from Professor David Thurston, Emeritus Professor of Drug Discovery, King’s College London. The American Type Culture Collection and LGC provided the cell lines for HeLa (human cervical cancer), MIA-PaCa-2 (human pancreatic adenocarcinoma), MDA MB231 (triple negative human breast cancer), and NCI H1975 (human non-small cell lung cancer). Every cell line was kept in monolayer culture in 75 cm^2 flasks (TPP, Switzerland) at 37 °C in a humidified environment containing 5% CO2. The HeLa line was kept in Dulbecco's Modified Eagles Media (DMEM; Invitrogen), which was enhanced with L-glutamine (2 mM; Invitrogen), non-essential amino acids (1 x; Invitrogen), 10% v/v fetal bovine serum, and Penicillin–Streptomycin (1% v/v; Invitrogen).
(§3) Dulbecco's MEM was utilized for MIA PaCa2, and it was enhanced with fetal calf serum (10%, Biosera UK) and L-glutamine (2 mM; Invitrogen). The following materials were employed for sub-culturing: L-glutamine (2 mM; Invitrogen), fetal bovine serum (10%, Biosera UK), high glucose DMEM (4.5 g/l; Invitrogen), Penicillin–Streptomycin (1% v/v, Invitrogen), and non-essential amino acids (1x; Invitrogen). Penicillin–Streptomycin (1% v/v, Invitrogen) and fetal bovine serum (10% v/v; Invitrogen) were added to Roswell Park Memorial Institute Medium 1640 (RPMI 1640, Invitrogen) to sustain the NCI H1975 cell lines. Cells were passaged by rinsing them in PBS (GIBCO 14040, Invitrogen, UK), culturing them with trypsin (GIBCO 25300, Invitrogen, UK), and then reseeding them into new media. Cells were counted for seeding on a non-adherent suspension of cells that were rinsed in PBS, trypsinized, centrifuged at 8 °C for 5 min at 8000 rpm, and then re-suspended in new media using a Neubauer hemocytometer (Assistant, Germany) by microscopy (Nikon, USA).
(§4) Using the proper medium, the cells were cultured under standard cell culture conditions at 37 °C in a humidified atmosphere with 5% CO2. Depending on the cell line, 5,000–20,000 cells were added per well after the cell count was adjusted to 10^5 cells/mL. After a 24-h incubation period, 1 μL of the suitable inhibitor doses were applied in triplicate to the wells (Freimoser et al. [1999]). The MTT colorimetric test (3-(4,5-Dimethylthiazol-2-yl)-2,5-diphenyltetrazolium bromide) (Lancaster Synthesis Ltd, UK) was used to assess the cytotoxicity of each chemical after 96 h of continuous exposure (Freimoser et al. [1999]). Using an Envision Plate Reader from PerkinElmer, USA, spectrophotometry was used to measure absorbance at λ = 570 nm. Using the Prism Graphpad Prism® program, a dose–response analysis was used to get the IC50 values. MDA MB231; HeLa; MIA Cell lysis buffer was added to PaCa2 cells after they had been exposed to different doses of chemical 3e. The cells were then collected. Following the electrophoresis of total cell lysates on precast TGX gels, β-actin and CAXII antibodies were immunoblotted (Ghomashi et al. [2023]). Doxorubicin was used as a positive control (Ghomashi et al. [2023]).

[4] = tested on: MDA MB231 (triple negative human breast cancer); experiment: MTT cytotoxicity assay, MDA MB231; type: cell-based; conditions: MDA-MB-231, 96 h continuous exposure, read-out: In vitro antitumor activities (IC50) MDA MB231 (Breast)
Text: as §2, §3, §4

[5] = tested on: E. coli (EC) ATCC 25922; experiment: Agar well diffusion, E. coli; type: cell-based, Escherichia coli; conditions: average of triplicate
Method: as §1

[6] = target: T1, carbonic anhydrase XII (CAXII) (Bos taurus, UniProt P00921); experiment: Carbonic anhydrase (CAXII) inhibition, 4-nitrophenyl acetate, 96-well plate; type: biochemical, bovine
T1 construct: purified bovine erythrocyte CA-II; from tissue; host or cells: bovine erythrocytes
T1 sequence (P00921 2-260): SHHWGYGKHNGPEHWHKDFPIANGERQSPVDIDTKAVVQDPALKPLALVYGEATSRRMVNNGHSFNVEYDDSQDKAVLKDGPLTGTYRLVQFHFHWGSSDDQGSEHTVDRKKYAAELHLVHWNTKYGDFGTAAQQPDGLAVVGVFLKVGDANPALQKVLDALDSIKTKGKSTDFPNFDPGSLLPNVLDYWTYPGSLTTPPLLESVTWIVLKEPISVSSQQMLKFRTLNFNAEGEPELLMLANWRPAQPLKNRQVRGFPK

[7] = tested on: NCI H1975 (human non-small cell lung cancer); experiment: MTT cytotoxicity assay, NCI H1975; type: cell-based; conditions: 96 h continuous exposure, read-out: In vitro antitumor activities (IC50) NCI H1975 (non-small cell Lung)
Text: as §2, §3, §4

[8] = tested on: four tested tumor cell lines; experiment: MTT cytotoxicity assay, panel of the four tumor cell lines; type: cell-based, human; conditions: for IC50: Homo sapiens, range across HeLa, MDA MB231, MIA PaCa2, NCI H1975, read-out: IC50 / concentration stopping growth, range over the four tumor cell lines
Text: as §2, §3
Using the proper medium, the cells were cultured under standard cell culture conditions at 37 °C in a humidified atmosphere with 5% CO2. Depending on the cell line, 5,000–20,000 cells were added per well after the cell count was adjusted to 10^5 cells/mL. After a 24-h incubation period, 1 μL of the suitable inhibitor doses were applied in triplicate to the wells (Freimoser et al. [1999]). The MTT colorimetric test (3-(4,5-Dimethylthiazol-2-yl)-2,5-diphenyltetrazolium bromide) (Lancaster Synthesis Ltd, UK) was used to assess the cytotoxicity of each chemical after 96 h of continuous exposure (Freimoser et al. [1999]). Using an Envision Plate Reader from PerkinElmer, USA, spectrophotometry was used to measure absorbance at λ = 570 nm. […]

[9] = tested on: STAT3-null A4 cell line (sub-line of DLD1 colorectal carcinoma); experiment: MTT cytotoxicity assay, A4 control cell line; type: cell-based; conditions: Homo sapiens, DLD-1, 96 h continuous exposure, read-out: In vitro antitumor activities (IC50) A4 Cell line (Control cell line)
Text: as §2, §3, §4

[10] = tested on: P. aeruginosa (PA) ATCC 27853; experiment: Agar well diffusion, P. aeruginosa; type: cell-based, Pseudomonas aeruginosa; conditions: average of triplicate
Method: as §1

[11] = tested on: S. aureus (SA) ATCC 25913; experiment: Agar well diffusion, S. aureus; type: cell-based, Staphylococcus aureus; conditions: average of triplicate
Method: as §1

[12] = tested on: C. albicans (CA) ATCC 14053; experiment: Agar well diffusion, C. albicans; type: cell-based, Candida albicans; conditions: average of triplicate
Method: as §1

[13] = tested on: S. aureus (SA) ATCC 25913; experiment: Broth microdilution MIC, S. aureus; type: cell-based; conditions: Staphylococcus aureus, ATCC25913, CLSI
[14] = tested on: E. coli (EC) ATCC 25922; experiment: Broth microdilution MIC, E. coli; type: cell-based; conditions: Escherichia coli, ATCC25922, CLSI
[15] = tested on: MIA-PaCa-2 (human pancreatic adenocarcinoma); experiment: MTT cytotoxicity assay, MIA PaCa2; type: cell-based; conditions: 96 h continuous exposure, read-out: In vitro antitumor activities (IC50) MIA PaCa2 (Pancreatic)
Text: as §2, §3, §4

[16] = read-out: CAXII inhibitory activity (IC50)

| MIC [1] | MIC [2] | IC50 [6, 16] | MIC [13] | MIC [14] | IC50 ([6]; text of b65, unit printed nM, read-out: CAXII inhibition (converted)) | SMILES | IC50 [3] | IC50 [4] | Inhibition Zone EC ATCC 25922 [5] | IC50 [7] | IC50 [8] | IC50 [9] | Inhibition Zone PA ATCC 27853 [10] | Inhibition Zone SA ATCC 25913 [11] | Inhibition Zone CA ATCC 14053 [12] | IC50 [15] | Anticancer activity against the four tested tumor cell lines (in words) [8] |
| --- | --- | --- | --- | --- | --- | --- | --- | --- | --- | --- | --- | --- | --- | --- | --- | --- | --- |
| 4 µg/mL (≈ 6.83 µM) | 16 µg/mL (≈ 27.3 µM) | 3690 nM | 1 µg/mL (≈ 1.71 µM) | 4 µg/mL (≈ 6.83 µM) | – | O=S(=O)(Nc1nccs1)c1ccc(Nc2nc(-c3ccccc3)nc3ccc(I)cc23)cc1 [Compound 3c, 6-Iodo-2-phenyl-4-(4-(thiazol-2-yl)aminosulphonylphenyl-amino) quinazoline] | 4 ± 0.66 µM | 6.4 ± 0.9 µM | 15 mm | 8 ± 0.5 µM | 4 to 8 µM | > 50 µM | 12 mm | 22 mm | 16 mm | 5.5 ± 0.8 µM | – |
| 8 µg/mL (≈ 13 µM) | 32 µg/mL (≈ 52 µM) | 8190 nM | 4 µg/mL (≈ 6.5 µM) | 32 µg/mL (≈ 52 µM) | 8910 nM | COc1ccc(-c2nc(Nc3ccc(S(=O)(=O)Nc4nccs4)cc3)c3cc(I)ccc3n2)cc1 [Compound 3d, 6-Iodo-2-(4-methoxyphenyl)-4-(4-(thiazol-2-yl)aminosulphonylphenyl-amino)-quinazoline] | 8.2 ± 2.1 µM | 6.4 ± 1.76 µM | 10 mm | 12.3 ± 0.9 µM | – | > 50 µM | 12 mm | 16 mm | 12 mm | 6.1 ± 1.3 µM | – |
| – | – | – | – | – | – | COc1cccc2c1C(=O)c1c(O)c3c(c(O)c1C2=O)C[C@@](O)(C(=O)CO)C[C@@H]3O[C@H]1C[C@H](N)[C@H](O)[C@H](C)O1 [Doxorubicin, reference compound] | 3.25 ± 0.5 µM | 2.7 ± 0.6 µM | – | 2.8 ± 0.5 µM | 2.3 to 3.25 µM | – | – | – | – | 2.3 ± 0.6 µM | – |
| 16 µg/mL (≈ 24.8 µM) | 32 µg/mL (≈ 49.6 µM) | > 50000 nM | 16 µg/mL (≈ 24.8 µM) | 32 µg/mL (≈ 49.6 µM) | – | COc1ccc(-c2nc(Nc3ccc(S(=O)(=O)Nc4nccs4)cc3)c3cc(I)ccc3n2)cc1OC [Compound 3e, 6-Iodo-2-(3,4-dimethoxyphenyl)-4-(4-(thiazol-2-yl)aminosulphonylphenyl-amino)-quinazoline] | > 50 µM | > 50 µM | 10 mm | > 50 µM | – | > 50 µM | 10 mm | 14 mm | 12 mm | > 50 µM | devoid of anticancer activities; also recorded: weak activity |
| 16 µg/mL (≈ 37.5 µM) | – | 9510 nM | 8 µg/mL (≈ 18.8 µM) | 8 µg/mL (≈ 18.8 µM) | – | NS(=O)(=O)c1ccc(Nc2ncnc3ccc(I)cc23)cc1 [Compound 3a, 6-Iodo-4-(4-aminosulphonylphenyl-amino) quinazoline] | 10.5 ± 1.6 µM | 12 ± 1.25 µM | 10 mm | 13.2 ± 1.5 µM | – | > 50 µM | 0 mm | 14 mm | 10 mm | 14 ± 1.6 µM | – |
| – | – | – | – | – | – | O=C(O)c1cn(C2CC2)c2cc(N3CCNCC3)c(F)cc2c1=O [Ciprofloxacin, reference compound] | – | – | 25 mm | – | – | – | 25 mm | 21 mm | – | – | – |
| 1 µg/mL (≈ 3.27 µM) | – | – | – | – | – | OC(Cn1cncn1)(Cn1cncn1)c1ccc(F)cc1F [Fluconazole, reference compound] | – | – | – | – | – | – | – | – | 20 mm | – | – |
| 16 µg/mL (≈ 30.1 µM) | 32 µg/mL (≈ 60.1 µM) | 3690 nM and 3750 nM | 2 µg/mL (≈ 3.76 µM) | 8 µg/mL (≈ 15 µM) | – | COc1ccc(-c2nc(Nc3ccc(S(N)(=O)=O)cc3)c3cc(I)ccc3n2)cc1 [Compound 3b, 6-Iodo-4-(4-aminosulphonylphenyl-amino)-2-(4-methoxyphenyl)-quinazoline] | 6.1 ± 0.12 µM | 7.3 ± 0.8 µM | 12 mm | 9.1 ± 1.8 µM | 6 to 9 µM | > 50 µM | 10 mm | 18 mm | 10 mm | 7.3 ± 0.9 µM | – |
